Measurements taken from patent US20230049952A1, “METHODS AND COMPOUNDS FOR RESTORING MUTANT P53 FUNCTION” (PMV Pharmaceuticals, Inc., priority 2020, published 2023).

System: NF-κB signaling pathway in MT373 tumors
Assay: MT373 syngeneic sarcoma model: mouse NF-κB signaling pathway profiling panel
Assay type: in vivo

Compound: CCn1c(C#CCNc2ccccc2)cc2cc(CNC3CCN(C)CC3)ccc21 [Compound 1, 1-Anilino-3-{1-ethyl-5-[(1-methyl-4-piperidylamino)methyl]-1H-indol-2-yl}-2-propyne]
- Card10 fold increase over or percent reduction vs vehicle control (150 mg/kg BIDx1, 72 h): 1.39 ± 0.49 fold or %
- Card11 fold increase over or percent reduction vs vehicle control (150 mg/kg BIDx1, 72 h): 1.52 ± 0.54 fold or %
- Casp1 fold increase over or percent reduction vs vehicle control (150 mg/kg BIDx1, 72 h): 9.73 ± 31.75 fold or %
- Casp8 fold increase over or percent reduction vs vehicle control (150 mg/kg BIDx1, 72 h): 1.04 ± 0.13 fold or %
- Ccl2 fold increase over or percent reduction vs vehicle control (150 mg/kg BIDx1, 72 h): 52.53 ± 13.14 fold or %
- Ccl5 fold increase over or percent reduction vs vehicle control (150 mg/kg BIDx1, 72 h): 2.54 ± 37.88 fold or %
- Cd27 fold increase over or percent reduction vs vehicle control (150 mg/kg BIDx1, 72 h): 1.53 ± 0.39 fold or %
- Cd40 fold increase over or percent reduction vs vehicle control (150 mg/kg BIDx1, 72 h): 20.33 ± 32.50 fold or %
- Cflar fold increase over or percent reduction vs vehicle control (150 mg/kg BIDx1, 72 h): 1.10 ± 0.20 fold or %
- Chuk fold increase over or percent reduction vs vehicle control (150 mg/kg BIDx1, 72 h): 5.62 ± 25.53 fold or %
- Crebbp fold increase over or percent reduction vs vehicle control (150 mg/kg BIDx1, 72 h): 1.12 ± 0.15 fold or %
- Csf1 fold increase over or percent reduction vs vehicle control (150 mg/kg BIDx1, 72 h): 3.08 ± 4.37 fold or %
- Csf2 fold increase over or percent reduction vs vehicle control (150 mg/kg BIDx1, 72 h): 5.23 ± 19.46 fold or %
- Csf3 fold increase over or percent reduction vs vehicle control (150 mg/kg BIDx1, 72 h): 46.68 ± 13.40 fold or %
- Egfr fold increase over or percent reduction vs vehicle control (150 mg/kg BIDx1, 72 h): 1.01 ± 0.23 fold or %
- Egr1 fold increase over or percent reduction vs vehicle control (150 mg/kg BIDx1, 72 h): 66.09 ± 6.29 fold or %
- Eif2ak2 fold increase over or percent reduction vs vehicle control (150 mg/kg BIDx1, 72 h): 5.36 ± 11.08 fold or %
- Elk1 fold increase over or percent reduction vs vehicle control (150 mg/kg BIDx1, 72 h): 19.15 ± 11.29 fold or %
- F2r fold increase over or percent reduction vs vehicle control (150 mg/kg BIDx1, 72 h): 14.84 ± 13.77 fold or %
- Fadd fold increase over or percent reduction vs vehicle control (150 mg/kg BIDx1, 72 h): 1.25 ± 0.13 fold or %
- Fasl fold increase over or percent reduction vs vehicle control (150 mg/kg BIDx1, 72 h): 42.85 ± 19.54 fold or %
- Fos fold increase over or percent reduction vs vehicle control (150 mg/kg BIDx1, 72 h): 86.19 ± 1.00 fold or %
- Hmox1 fold increase over or percent reduction vs vehicle control (150 mg/kg BIDx1, 72 h): 1.03 ± 0.18 fold or %
- Icam1 fold increase over or percent reduction vs vehicle control (150 mg/kg BIDx1, 72 h): 1.07 ± 0.18 fold or %
- Ifng fold increase over or percent reduction vs vehicle control (150 mg/kg BIDx1, 72 h): 22.04 ± 33.20 fold or %
- Ikbkb fold increase over or percent reduction vs vehicle control (150 mg/kg BIDx1, 72 h): 1.24 ± 0.27 fold or %
- Ikbke fold increase over or percent reduction vs vehicle control (150 mg/kg BIDx1, 72 h): 2.05 ± 40.34 fold or %
- Ikbkg fold increase over or percent reduction vs vehicle control (150 mg/kg BIDx1, 72 h): 1.06 ± 0.32 fold or %
- Il1a fold increase over or percent reduction vs vehicle control (150 mg/kg BIDx1, 72 h): 63.60 ± 11.55 fold or %
- Il1b fold increase over or percent reduction vs vehicle control (150 mg/kg BIDx1, 72 h): 84.09 ± 6.24 fold or %
- Il1r1 fold increase over or percent reduction vs vehicle control (150 mg/kg BIDx1, 72 h): 9.26 ± 29.81 fold or %
- Il10 fold increase over or percent reduction vs vehicle control (150 mg/kg BIDx1, 72 h): 12.42 ± 41.31 fold or %
- Irak1 fold increase over or percent reduction vs vehicle control (150 mg/kg BIDx1, 72 h): 4.37 ± 14.84 fold or %
- Irak2 fold increase over or percent reduction vs vehicle control (150 mg/kg BIDx1, 72 h): 1.07 ± 0.14 fold or %
- Irf1 fold increase over or percent reduction vs vehicle control (150 mg/kg BIDx1, 72 h): 1.06 ± 0.20 fold or %
- Jun fold increase over or percent reduction vs vehicle control (150 mg/kg BIDx1, 72 h): 26.30 ± 10.41 fold or %
- Lta fold increase over or percent reduction vs vehicle control (150 mg/kg BIDx1, 72 h): 26.12 ± 35.38 fold or %
- Ltbr fold increase over or percent reduction vs vehicle control (150 mg/kg BIDx1, 72 h): 1.05 ± 0.08 fold or %
- Map3k1 fold increase over or percent reduction vs vehicle control (150 mg/kg BIDx1, 72 h): 1.25 ± 0.28 fold or %
- Mapk3 fold increase over or percent reduction vs vehicle control (150 mg/kg BIDx1, 72 h): 1.22 ± 0.17 fold or %
- Myd88 fold increase over or percent reduction vs vehicle control (150 mg/kg BIDx1, 72 h): 37.76 ± 10.69 fold or %
- Nfkb1 fold increase over or percent reduction vs vehicle control (150 mg/kg BIDx1, 72 h): 1.06 ± 0.05 fold or %
- Nfkb2 fold increase over or percent reduction vs vehicle control (150 mg/kg BIDx1, 72 h): 1.30 ± 0.23 fold or %
- Nfkbia fold increase over or percent reduction vs vehicle control (150 mg/kg BIDx1, 72 h): 6.09 ± 32.11 fold or %
- Nod1 fold increase over or percent reduction vs vehicle control (150 mg/kg BIDx1, 72 h): 1.26 ± 0.26 fold or %
- Raf1 fold increase over or percent reduction vs vehicle control (150 mg/kg BIDx1, 72 h): 4.12 ± 9.21 fold or %
- Rel fold increase over or percent reduction vs vehicle control (150 mg/kg BIDx1, 72 h): 1.09 ± 0.23 fold or %
- Rela fold increase over or percent reduction vs vehicle control (150 mg/kg BIDx1, 72 h): 1.01 ± 0.08 fold or %
- Relb fold increase over or percent reduction vs vehicle control (150 mg/kg BIDx1, 72 h): 3.68 ± 22.32 fold or %
- Ripk1 fold increase over or percent reduction vs vehicle control (150 mg/kg BIDx1, 72 h): 1.11 ± 0.09 fold or %
- Ripk2 fold increase over or percent reduction vs vehicle control (150 mg/kg BIDx1, 72 h): 29.79 ± 5.69 fold or %
- Slc20a1 fold increase over or percent reduction vs vehicle control (150 mg/kg BIDx1, 72 h): 36.31 ± 7.52 fold or %
- Smad3 fold increase over or percent reduction vs vehicle control (150 mg/kg BIDx1, 72 h): 1.09 ± 0.18 fold or %
- Stat1 fold increase over or percent reduction vs vehicle control (150 mg/kg BIDx1, 72 h): 1.20 ± 0.20 fold or %
- Tbk1 fold increase over or percent reduction vs vehicle control (150 mg/kg BIDx1, 72 h): 1.17 ± 0.15 fold or %
- Tlr1 fold increase over or percent reduction vs vehicle control (150 mg/kg BIDx1, 72 h): 1.52 ± 0.56 fold or %
- Tlr2 fold increase over or percent reduction vs vehicle control (150 mg/kg BIDx1, 72 h): 1.05 ± 0.16 fold or %
- Tlr3 fold increase over or percent reduction vs vehicle control (150 mg/kg BIDx1, 72 h): 5.46 ± 14.97 fold or %
- Tlr4 fold increase over or percent reduction vs vehicle control (150 mg/kg BIDx1, 72 h): 1.13 ± 0.27 fold or %
- Tlr6 fold increase over or percent reduction vs vehicle control (150 mg/kg BIDx1, 72 h): 1.25 ± 0.31 fold or %
- Tlr9 fold increase over or percent reduction vs vehicle control (150 mg/kg BIDx1, 72 h): 1.78 ± 0.32 fold or %
- Tnf fold increase over or percent reduction vs vehicle control (150 mg/kg BIDx1, 72 h): 3.41 ± 24.15 fold or %
- Tnfaip3 fold increase over or percent reduction vs vehicle control (150 mg/kg BIDx1, 72 h): 10.12 ± 40.91 fold or %
- Tnfrsf1a fold increase over or percent reduction vs vehicle control (150 mg/kg BIDx1, 72 h): 1.18 ± 0.13 fold or %
- Tnfrsf1b fold increase over or percent reduction vs vehicle control (150 mg/kg BIDx1, 72 h): 1.52 ± 0.29 fold or %
- Tnfrsf10b fold increase over or percent reduction vs vehicle control (150 mg/kg BIDx1, 72 h): 1.17 ± 0.22 fold or %
- Tnfsf10 fold increase over or percent reduction vs vehicle control (150 mg/kg BIDx1, 72 h): 1.09 ± 0.21 fold or %
- Tnfsf14 fold increase over or percent reduction vs vehicle control (150 mg/kg BIDx1, 72 h): 1.34 ± 0.30 fold or %
- Tollip fold increase over or percent reduction vs vehicle control (150 mg/kg BIDx1, 72 h): 1.11 ± 0.10 fold or %
- Tradd fold increase over or percent reduction vs vehicle control (150 mg/kg BIDx1, 72 h): 1.10 ± 0.24 fold or %
- Traf2 fold increase over or percent reduction vs vehicle control (150 mg/kg BIDx1, 72 h): 1.17 ± 0.13 fold or %
- Traf3 fold increase over or percent reduction vs vehicle control (150 mg/kg BIDx1, 72 h): 3.24 ± 6.50 fold or %
- Traf5 fold increase over or percent reduction vs vehicle control (150 mg/kg BIDx1, 72 h): 1.24 ± 0.14 fold or %
- Traf6 fold increase over or percent reduction vs vehicle control (150 mg/kg BIDx1, 72 h): 1.17 ± 0.24 fold or %
- Zap70 fold increase over or percent reduction vs vehicle control (150 mg/kg BIDx1, 72 h): 1.52 ± 0.48 fold or %
- Agt fold increase over or percent reduction vs vehicle control (150 mg/kg BIDx1, […]): 50.51 ± 41.92 fold or %
- Akt1 fold increase over or percent reduction vs vehicle control (150 mg/kg BIDx1, […]): 8.16 ± 7.88 fold or %
- Atf1 fold increase over or percent reduction vs vehicle control (150 mg/kg BIDx1, […]): 1.13 ± 0.30 fold or %
- Atf2 fold increase over or percent reduction vs vehicle control (150 mg/kg BIDx1, […]): 1.00 ± 0.20 fold or %
- Bcl2a1a fold increase over or percent reduction vs vehicle control (150 mg/kg BIDx1, […]): 4.90 ± 3.38 fold or %
- Bcl2l1 fold increase over or percent reduction vs vehicle control (150 mg/kg BIDx1, […]): 1.00 ± 0.07 fold or %
- Bcl3 fold increase over or percent reduction vs vehicle control (150 mg/kg BIDx1, […]): 14.36 ± 16.67 fold or %
- Bcl10 fold increase over or percent reduction vs vehicle control (150 mg/kg BIDx1, […]): 1.18 ± 0.09 fold or %
- Birc3 fold increase over or percent reduction vs vehicle control (150 mg/kg BIDx1, […]): 1.10 ± 0.26 fold or %
- Card10 fold increase over or percent reduction vs vehicle control (150 mg/kg BIDx1, […]): 40.14 ± 8.96 fold or %
- Card11 fold increase over or percent reduction vs vehicle control (150 mg/kg BIDx1, […]): 1.85 ± 0.30 fold or %
- Casp1 fold increase over or percent reduction vs vehicle control (150 mg/kg BIDx1, […]): 1.82 ± 0.71 fold or %
- Casp8 fold increase over or percent reduction vs vehicle control (150 mg/kg BIDx1, […]): 1.14 ± 0.07 fold or %
- Ccl2 fold increase over or percent reduction vs vehicle control (150 mg/kg BIDx1, […]): 1.47 ± 0.35 fold or %
